Test results as given in paper PMC6680510, “Benzotriazine Di-Oxide Prodrugs for Exploiting Hypoxia and Low Extracellular pH in Tumors” (Molecules, 2019).
Read-outs that look alike come from different tables or passages of the source.

Legend:
[1] = Solubility in AlphaMEM + 5% FBS, pH 7.4; conditions: culture medium (AlphaMEM + 5% FBS), pH 7.4, plasma or biological fluid
FaDu cells = experiment: IC50 assay (inhibition of proliferation, 4 h exposure, SRB); assay type: cell-based; conditions: for IC50: Homo sapiens, 4 h
SiHa cells = experiment: as above; conditions: SiHa; for IC50: Homo sapiens, 4 h
Method: Cells were seeded in 96-well plates (SiHa or FaDu 1500 cells/well, UT-SCC-74B 800 cells/well) in 100 μL. After incubation for 2 h, the drugs were added in 50 μL of the same titrated medium at 3× the final concentration to duplicate the wells. After a further 4 h the plates were checked for drug precipitation using a phase contrast microscope, then drugs were removed by aspirating and washing with the standard (pH 7.4) medium, then aspirating again and adding 150 μL of the medium. Cultures were then grown for 5 days before staining with sulphorhodamine B and measuring absorbance, with the estimation of IC50 values using 4-parameter logistic regression, as previously carried out.
The medium and plasticware was equilibrated in the chamber for 3 days prior to use. In the anoxia experiments, FaDu cells were plated in poly-L-lysine coated plates (Corning Cat # 356461) to improve attachment.
Cells were subsequently grown under standard cell culture conditions (oxia, pHe 7.4) for 5 days before staining with sulforhodamine B (SRB). […] (B) SN30000 (2). (C) BTO acid 4a. Values are means and errors are ranges for duplicate cultures in a single experiment. Fitted curves are 4-parameter logistic regressions. PCR = pH cytotoxicity ratio. ACR = anoxia cytotoxicity ratio. TMR = tumor microenvironment ratio.

[2] = pHe 6.5, 4 h, anoxic, read-out: Anoxic IC50
[3] = pHe 6.5, 4 h, oxic, read-out: Oxic IC50
[4] = pHe 7.4, 4 h, anoxic, read-out: Anoxic IC50
[5] = pHe 7.4, 4 h, oxic, read-out: Oxic IC50
[6] = read-out: Anoxic IC50, SiHa, pHe 6.5, 4 h, anoxic
[7] = read-out: Anoxic IC50, SiHa, pHe 7.4, 4 h, anoxic
[8] = read-out: Oxic IC50, SiHa, pHe 6.5, 4 h, oxic
[9] = read-out: Oxic IC50, SiHa, pHe 7.4, 4 h, oxic

Row | Structure (SMILES) | melting point | solubility ([1]; kinetic from dmso stock) | TMR (oxic IC50 pHe 7.4/anoxic IC50 pHe 6.5) (FaDu cells) | IC50 (FaDu cells; [2]) | IC50 (FaDu cells; [3]) | IC50 (FaDu cells; [4]) | IC50 (FaDu cells; [5]) | PCR Anoxic (IC50 at pHe 7.4/IC50 at pHe 6.5) (FaDu cells; anoxic) | ACR (oxic IC50/anoxic IC50) (FaDu cells; pHe 6.5) | IC50 (SiHa cells; [6]) | IC50 (SiHa cells; [7]) | IC50 (SiHa cells; [8]) | IC50 (SiHa cells; [9]) | TMR (overall TME ratio = oxic IC50 pHe 7.4/anoxic IC50 pHe 6.5) (SiHa cells) | PCR Anoxic (IC50 at pHe 7.4/IC50 at pHe 6.5) (SiHa cells) | ACR (anoxic cytotoxicity ratio = oxic IC50/anoxic IC50) (SiHa cells; pHe 6.5) | other results
1 | Cc1ccc2c(c1)[n+]([O-])nc(NCCCC(=O)O)[n+]2[O-] (hydrate or solvate) [Compound 12a, 3-((3-Carboxypropyl)amino)-7-methylbenzo[e][1,2,4]triazine 1,4-Dioxide] | 185 to 188 °C | – | – | – | – | – | – | – | – | – | – | – | – | – | – | – | –
2 | COC(=O)CCc1n[n+]([O-])c2ccc(C)cc2[n+]1[O-] [Compound 6b, 3-(3-Methoxy-3-oxopropyl)-6-methylbenzo[e][1,2,4]triazine 1,4-Dioxide] | 166 to 168 °C | > 900 µM | – | – | – | – | – | – | – | – | – | – | – | – | – | – | –
3 | COC(=O)CCc1n[n+]([O-])c2cc(C)ccc2[n+]1[O-] [Compound 5b, 3-(3-Methoxy-3-oxopropyl)-7-methylbenzo[e][1,2,4]triazine 1,4-Dioxide] | 165 to 167 °C | > 950 µM | – | – | – | – | – | – | – | – | – | – | – | – | – | – | –
4 | Cc1ccc2c(c1)[n+]([O-])nc(NCCCC(=O)O)[n+]2[O-] [Compound 12a, 3-((3-Carboxypropyl)amino)-7-methylbenzo[e][1,2,4]triazine 1,4-Dioxide] | – | > 890 µM | >1 | 271 ± 53 µM | > 300 µM | > 300 µM | > 300 µM | >1 | >1 | 234 ± 17 µM | > 300 µM | > 300 µM | > 300 µM | >1 | >1 | >1 | –
5 | COC(=O)CCNc1n[n+]([O-])c2cc3c(cc2[n+]1[O-])CCC3 [Compound 10b, 3-((3-Methoxy-3-oxopropyl)amino)-7,8-dihydro-6H-indeno[5,6-e][1,2,4]triazine 1,4-Dioxide] | – | – | 7.31 ± 1.08 | 40 ± 5.8 µM | 262 ± 29 µM | 43.7 ± 12.1 µM | 292 ± 8 µM | 1.09 ± 0.34 | 6.56 ± 1.19 | 21 ± 4.2 µM | 20.4 ± 4.8 µM | 208 ± 26 µM | 249 ± 50 µM | 11.9 ± 3.4 | 0.97 ± 0.30 | 9.90 ±2.34 | PCR oxic (IC50 at pHe 7.4/IC50 at pHe 6.5) (FaDu cells; oxic): 1.11 ± 0.13; ACR (oxic IC50/anoxic IC50) (FaDu cells; pHe 7.4): 6.69 ± 1.86; solubility ([1]; thermodynamic from solid): 350 µM; PCR oxic (IC50 at pHe 7.4/IC50 at pHe 6.5) (SiHa cells; oxic): 1.20 ± 0.28; ACR (anoxic cytotoxicity ratio = oxic IC50/anoxic IC50) (SiHa cells; pHe 7.4): 12.2 ± 3.8
